These results are taken from ChEMBL document CHEMBL1129525 (J Med Chem, 1996).

Molecules are shown by their SMILES.

Experiment [1] concerns the target T1, Dihydrofolate reductase (Rattus norvegicus, UniProt Q920D2).
T1 sequence (Q920D2 whole entry): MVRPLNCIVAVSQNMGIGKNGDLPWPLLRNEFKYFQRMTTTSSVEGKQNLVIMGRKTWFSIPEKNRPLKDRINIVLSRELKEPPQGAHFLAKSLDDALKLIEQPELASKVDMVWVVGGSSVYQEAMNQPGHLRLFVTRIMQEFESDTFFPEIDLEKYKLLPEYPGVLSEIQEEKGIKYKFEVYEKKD
Description: Inhibitory activity against rat liver dihydrofolate reductase

The test system of experiment [2] is Toxoplasma gondii. In words: Inhibition of Toxoplasma gondii cell growth. The experiment is classed as functional, organism-based.
Experiment [3] addresses T2, Dihydrofolate reductase (Pneumocystis carinii, UniProt P16184).
T2 sequence (P16184 whole entry): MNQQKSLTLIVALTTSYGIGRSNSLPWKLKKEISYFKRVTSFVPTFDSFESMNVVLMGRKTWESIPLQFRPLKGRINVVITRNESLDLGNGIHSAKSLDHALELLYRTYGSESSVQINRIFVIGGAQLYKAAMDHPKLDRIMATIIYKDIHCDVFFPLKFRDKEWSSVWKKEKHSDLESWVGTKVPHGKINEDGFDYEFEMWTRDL
Description: Inhibitory activity against Pneumocystis carinii dihydrofolate reductase

Experiment [4] concerns the target T3, Bifunctional dihydrofolate reductase-thymidylate synthase (Toxoplasma gondii, UniProt Q07422).
T3 sequence (Q07422 whole entry): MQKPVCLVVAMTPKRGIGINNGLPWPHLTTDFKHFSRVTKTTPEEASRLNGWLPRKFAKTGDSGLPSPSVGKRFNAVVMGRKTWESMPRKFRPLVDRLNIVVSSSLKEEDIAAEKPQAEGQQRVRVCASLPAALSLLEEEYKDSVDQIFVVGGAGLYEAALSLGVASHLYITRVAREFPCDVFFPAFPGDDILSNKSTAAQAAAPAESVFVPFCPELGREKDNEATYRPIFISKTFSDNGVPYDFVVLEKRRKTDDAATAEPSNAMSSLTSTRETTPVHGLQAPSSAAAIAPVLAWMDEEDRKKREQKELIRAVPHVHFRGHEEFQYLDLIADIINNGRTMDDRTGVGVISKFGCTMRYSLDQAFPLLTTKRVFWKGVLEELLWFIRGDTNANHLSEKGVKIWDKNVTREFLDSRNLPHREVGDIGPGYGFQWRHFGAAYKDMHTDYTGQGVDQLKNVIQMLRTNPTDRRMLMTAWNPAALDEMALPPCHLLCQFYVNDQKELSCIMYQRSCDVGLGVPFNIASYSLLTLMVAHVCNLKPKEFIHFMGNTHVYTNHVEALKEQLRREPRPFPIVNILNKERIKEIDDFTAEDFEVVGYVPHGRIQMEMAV
Description: Inhibitory activity against Toxoplasma gondii dihydrofolate reductase

In experiment [5] the test system is Toxoplasma gondii. In words: Inhibitory activity against Toxoplasma gondii cell growth(ca denotes calculated value). The experiment is classed as functional, organism-based.

With `COc1cc(NCc2cnc3nc(N)nc(N)c3c2C)cc(OC)c1`, the IC50 on Dihydrofolate reductase [1] was determined as 0.031 µM; in the experiment on Toxoplasma gondii [2], 0.06 µM; against Dihydrofolate reductase [3], 0.049 µM; in experiment [4], 0.0035 µM.
As to `COc1cc(NCc2ccc3nc(N)nc(N)c3c2C)cc(OC)c1OC` [TRIMETREXATE], in the experiment with Toxoplasma gondii [5], the IC50 is 0.02 µM.
